Measured values: patent publication US11584765B2 (priority 2017, dated 2023)

System: C57BL/6 mice
Experiment: animal or person
Format: in vivo
Details: Mus musculus, sc, 0.5 h, s.c. administration, 30 min, 55° C. water, read-out: ED50 (mg/kg) at 30 min on C57BL/6 mice in Warm-water Tail-flick Test

Row | Structure (SMILES) | ED50 [mg/kg]
1 | CCOCC1(CCc2ccccc2)CCN(Cc2ccc(CC(=O)OC)cc2)CC1 [Compound 181, methyl 2-(4-((4-(ethoxymethyl)-4-phenethylpiperidin-1-yl)methyl)phenyl)acetate] | > 10
2 | CC(=O)Nc1ccc(CN2CCC(CCc3cccs3)(C3C=CCO3)CC2)cc1 (stereo not drawn) [Compound 182, N-(4-((4-(2,5-dihydrofuran-2-yl)-4-(2-(thiophen-2-yl)ethyl)piperidin-1-yl)methyl)phenyl)acetamide] | > 10
3 | CC(=O)Nc1ccc(CN2CCC(CCc3cccs3)(c3ccccn3)CC2)cc1 [Compound 183, N-(4-((4-(pyridin-2-yl)-4-(2-(thiophen-2-yl)ethyl)piperidin-1-yl)methyl)phenyl)acetamide] | > 10
4 | CC(=O)Nc1ccc(CN2CCC(CCc3ccsc3)(c3ccccn3)CC2)cc1 [Compound 184, N-(4-((4-(pyridin-2-yl)-4-(2-(thiophen-3-yl)ethyl)piperidin-1-yl)methyl)phenyl)acetamide] | > 10
5 | CC(=O)Nc1ccc(CN2CCC(CCc3ccsc3)(C3CCO3)CC2)cc1 (stereo not drawn) [Compound 185, N-(4-((4-(oxetan-2-yl)-4-(2-(thiophen-3-yl)ethyl)piperidin-1-yl)methyl)phenyl)acetamide] | < 10
6 | CC(=O)Nc1ccc(CN2CCC(CCc3ccsc3)(C3CCCO3)CC2)cc1 (stereo not drawn) [Compound 186, N-(4-((4-(tetrahydrofuran-2-yl)-4-(2-(thiophen-3-yl)ethyl)piperidin-1-yl)methyl)phenyl)acetamide] | > 10
7 | CCOCC1(CCc2ccccc2)CCN(Cc2ccc(-c3nnc(N)o3)cc2)CC1 [Compound 187, 5-(4-((4-(ethoxymethyl)-4-phenethylpiperidin-1-yl)methyl)phenyl)-1,3,4-oxadiazol-2-amine] | > 10
8 | CCOCC1(CCc2ccccc2)CCN(Cc2ccc(-c3nnc(OCC)[nH]3)cc2)CC1 [Compound 188, 1-(4-(5-ethoxy-4H-1,2,4-triazol-3-yl)benzyl)-4-(ethoxymethyl)-4-phenethylpiperidine] | > 10
9 | CC(=O)Nc1ccc(CN2CCC(CCc3ccccc3)(c3ccco3)C2)cc1 (stereo not drawn) [Compound 189, N-(4-((3-(furan-2-yl)-3-phenethylpyrrolidin-1-yl)methyl)phenyl)acetamide] | > 10
10 | CC(=O)Nc1ccc(CN2CCC(CCc3ccsc3)(c3ccccn3)C2)cc1 (stereo not drawn) [Compound 190, N-(4-((3-(pyridin-2-yl)-3-(2-(thiophen-3-yl)ethyl)pyrrolidin-1-yl)methyl)phenyl)acetamide] | > 10
11 | CC(=O)Nc1ccc(CN2CCC(CCc3ccsc3)(C3CCO3)C2)cc1 (stereo not drawn) [Compound 191] | < 10
12 | CCn1nnn(CCN2CCC(CCc3ccccc3)(C3CCCO3)C2)c1=O (stereo not drawn) [Compound 192, 1-ethyl-4-(2-(3-phenethyl-3-(tetrahydrofuran-2-yl)pyrrolidin-1-yl)ethyl)-1H-tetrazol-5(4H)-one] | > 10
13 | c1ccc(CCC2(C3CCCO3)CCN(Cc3cccn3-c3cccnc3)C2)cc1 (stereo not drawn) [Compound 193, 3-(2-((3-phenethyl-3-(tetrahydrofuran-2-yl)pyrrolidin-1-yl)methyl)-1H-pyrrol-1-yl)pyridine] | > 10
14 | c1ccc(CCC2(C3CCCO3)CCN(Cc3ccccc3-c3cccs3)C2)cc1 (stereo not drawn) [Compound 194, 3-phenethyl-3-(tetrahydrofuran-2-yl)-1-(2-(thiophen-2-yl)benzyl)pyrrolidine] | > 10
15 | c1ccc(CCC2(C3CCCO3)CCN(Cc3ccccc3-c3ccco3)C2)cc1 (stereo not drawn) [Compound 195, 1-(2-(furan-2-yl)benzyl)-3-phenethyl-3-(tetrahydrofuran-2-yl)pyrrolidine] | > 10
16 | Clc1ccccc1CN1CCC(CCc2ccccc2)(C2CCCO2)C1 (stereo not drawn) [Compound 196, 1-(2-chlorobenzyl)-3-phenethyl-3-(tetrahydrofuran-2-yl)pyrrolidine] | > 10
17 | Cc1nc(CN2CCC(CCc3ccccc3)(C3CCCO3)C2)cs1 (stereo not drawn) [Compound 197, 2-methyl-4-((3-phenethyl-3-(tetrahydrofuran-2-yl)pyrrolidin-1-yl)methyl)thiazole] | > 10
18 | Cn1cc(CN2CCC(CCc3ccccc3)(C3CCCO3)C2)cn1 (stereo not drawn) [Compound 198, 1-methyl-4-((3-phenethyl-3-(tetrahydrofuran-2-yl)pyrrolidin-1-yl)methyl)-1H-pyrazole] | < 10
19 | Fc1ccc(-n2cccn2)c(CN2CCC(CCc3ccccc3)(C3CCCO3)C2)c1 (stereo not drawn) [Compound 199, 1-(4-fluoro-2-((3-phenethyl-3-(tetrahydrofuran-2-yl)pyrrolidin-1-yl)methyl)phenyl)-1H-pyrazole] | > 10
20 | CC(=O)Nc1ccc(CN2CCC(CCc3ccccc3)(C3(C)CCCO3)C2)cc1 (stereo not drawn) [Compound 200, N-(4-((3-(2-methyltetrahydro-furan-2-yl)-3-phenethylpyrrolidin-1-yl)methyl)phenyl)acetamide] | < 10
21 | CC(=O)Nc1ccc(CN2CCC(CCc3ccccc3)(C3OCC3(C)C)C2)cc1 (stereo not drawn) [Compound 201, N-(4-((3-(3,3-dimethyloxetan-2-yl)-3-phenethylpyrrolidin-1-yl)methyl)phenyl)acetamide] | < 10
22 | CC(=O)Nc1ccc(CN2CCC(CCc3ccccc3)(C3C=C(C)CO3)C2)cc1 (stereo not drawn) [Compound 202, N-(4-((3-(4-methyl-2,5-dihydrofuran-2-yl)-3-phenethylpyrrolidin-1-yl)methyl)phenyl)acetamide] | < 10
23 | CC(=O)Nc1ccc(CN2CCC(CCc3ccccc3)(c3cc(C)co3)C2)cc1 (stereo not drawn) [Compound 203, N-(4-((3-(4-methylfuran-2-yl)-3-phenethylpyrrolidin-1-yl)methyl)phenyl)acetamide] | > 10
24 | CCOC[C@@]1(CCc2ccccc2)CCN(Cc2ccc(NC(C)=O)cc2)C1 [Compound 204, (S)-N-(4-((3-(ethoxymethyl)-3-phenethylpyrrolidin-1-yl)methyl)phenyl)acetamide] | > 10
25 | CCOC[C@]1(CCc2ccccc2)CCN(Cc2ccc(NC(C)=O)cc2)C1 [Compound 205, (R)-N-(4-((3-(ethoxymethyl)-3-phenethylpyrrolidin-1-yl)methyl)phenyl)acetamide] | < 10
26 | CCOCC1(CCc2ccccc2)CCN(Cc2ccc(Nc3cnccn3)cc2)C1 (stereo not drawn) [Compound 206, N-(4-((3-(ethoxymethyl)-3-phenethylpyrrolidin-1-yl)methyl)phenyl)pyrazin-2-amine] | > 10
27 | CCOCC1(CCc2ccccc2)CCN(Cc2ccc(Nc3ncccn3)cc2)C1 (stereo not drawn) [Compound 207, N-(4-((3-(ethoxymethyl)-3-phenethylpyrrolidin-1-yl)methyl)phenyl)pyri-midin-2-amine] | > 10
28 | CC(=O)Nc1ccc(CN2CCC(CCc3ccccc3)(C3CCCCO3)C2)cc1 (stereo not drawn) [Compound 208, N-(4-((3-phenethyl-3-(tetrahydro-2H-pyran-2-yl)pyrrolidin-1-yl)methyl)phenyl)acetamide] | < 10
29 | c1ccc(CCC2(C3CCCCO3)CCN(Cc3ccccc3-c3cccs3)C2)cc1 (stereo not drawn) [Compound 209, 3-phenethyl-3-(tetrahydro-2H-pyran-2-yl)-1-(2-(thiophen-2-yl)benzyl)pyrrolidine] | > 10
30 | Clc1ccccc1CN1CCC(CCc2ccccc2)(C2CCCCO2)C1 (stereo not drawn) [Compound 210, 1-(2-chlorobenzyl)-3-phenethyl-3-(tetrahydro-2H-pyran-2-yl)pyrrolidine] | > 10
